Results published in patent publication US5468587A, “Hydrogen bond accepting groups on thermal solvents for image separation systems” (Eastman Kodak Company, priority 1993, dated 1995).

How the values were obtained:
[1] = heat activated transfer of image dye (yellow coupler Y-1, developer CD-2) through gelatin interlayer to polymeric dye receiver, Status A blue density; settings: coupler Y-1, CD-2
Protocol: (§1) Heat Activated Image Transfer. Dried integral films are laminated with gelatin subbed ESTAR™ film base and passed through a set of heated rollers at 0.635 cm./sec. with roller surface temperatures of 110° C. and a pressure of 140 kPa. The two film bases are separated; the gelatin layers adhere to the gelatin subbed ESTAR™ base and are thus separated from the polymeric dye receiver layer and its support. Status A reflection densitometry is obtained on the polymeric dye-receiver layer coated on a reflective support. These density values determined with the appropriate Status A filter are given in Example 1 in Table III.
Thermal Solvent Test Employing a Yellow Dye Forming Coupler. Three film examples are prepared in a manner analogous to examples 1 and 2 above, using a yellow dye forming coupler, Y-1, and a blue sensitized cubic emulsion in place of M-1 and a green sensitized emulsion, respectively. In this example TS-1 is compared with no added hydroxybenzene compound and with a hydroxybenzene without a hydrogen bond accepting functional group (CS-1). The thermal solvent [drawing 8] test layer is coated at gelatin laydown of 1.40 g/m^2 and a thermal solvent test compound at 1.30 g/m^2. The dye generating layer is coated at 1.40 g/m^2 of gelatin, 0.53 g/m^2 of coupler Y-1 and 0.38 g/m^2 of Ag. The photographic development and thermal processing is as described in example 2. […]

[2] = heat activated transfer of image dye (yellow coupler Y-1, developer CD-3) through gelatin interlayer to polymeric dye receiver, Status A blue density; settings: 3 passes; coupler Y-1, CD-3
Protocol: as §1
Thermal Solvent Test Employing a Yellow Dye Forming Coupler. Three film examples are prepared in a manner analogous to examples 1 and 2 above, using a yellow dye forming coupler, Y-1, and a blue sensitized cubic emulsion in place of M-1 and a green sensitized emulsion, respectively. […]
For all three example films the dye density transferred to the dye-receiverlayer in the absence of a thermal processing step (0-pass) is quite small indicating the absence of significant transfer under aqueous processing. […] For film example 15 in which the interlayer contains both gelatin and the thermal test material, TS-1, there is a substantial transfer of image dye as measured by the blue density. […]

[3] = heat activated transfer of image dye (coupler M-1, developer CD-3) through gelatin interlayer to polymeric dye receiver, Status A green density
Protocol: The following 17 examples are prepared to examine the ability of materials to effect the transfer of image dye through intervening layers of gelatin binder into a polymeric dye receiver layer and are described by the coating format shown in FIG. 2. The first layer (FIG. 2, layer 14) contains gelatin binder and the material to be tested as a thermal solvent while the upper layer (FIG. 2, layer 16) contains the image generating chemistry comprising a silver chloride emulsion and a dispersion of a dye generating coupler in a gelatin binder. A third, protective overcoat, layer (FIG. 2, layer 15) containing gelatin and hardener is applied over the first two gelatin test layers.
Examples 1 and 2 describe in detail the preparation of the solutions and dispersions used in these examples. Examples 3 and 4 describe the same film samples processed in a second developer. Example 1 contains no added material in the first gelatin layer. Example 2 is an example of a compound of our invention according to formula I.
Gelatin Interlayer Melt Preparation. This is an interlayer consisting of only gelatin that serves as a control for comparison of the effect of added materials on transfer of heat-transferable dyes through gelatin layers. […]

Row | SMILES | transfer of the integral dye density to the receiver layer [1] | transfer of the integral dye density to receiver [2] | transfer of the dye density in the original image ([3]; 1-pass) [%] | transfer of the dye density in the original image ([3]; 3-pass) [%]
1 | CCCCCCCCCCCCc1ccc(O)cc1 [CS-1] | less than 4% | less than 6% |  | 
2 | CCCCCCCCCCS(=O)(=O)c1ccc(O)cc1 [TS-1, 4-n-Decylsulfonylphenol] |  |  | 45 | 71
